Structures can show the parent of a compound that is named as a salt.
What follows are compounds tested on Acinetobacter baumannii ATCC17961 (assay: 90% growth inhibitory concentration (IC90) determination, antimicrobial susceptibility testing). Details: Acinetobacter baumannii, ATCC17961, 16 h, 90% growth inhibition, Iso-Sensitest broth, OD 600 nm over 16 h, 35±2° C.; read-out: ATCC 17961 IC90.
Assay type: cell-based
Method: Antimicrobial Susceptibility Testing:
90% Growth Inhibitory Concentration (IC90) Determination
The in vitro antimicrobial activity of the compounds was determined according to the following procedure:
The assay used a 10-points Iso-Sensitest broth medium to measure quantitatively the in vitro activity of the compounds against Acinetobacter baumannii ATCC17961 and ATCC17978.
Stock compounds in DMSO were serially twofold diluted (e.g. range from 50 to 0.097 μM final concentration) in 384 wells microtiter plates and inoculated with 49 μl the bacterial suspension in Iso-Sensitest medium to have a final cell concentration of ˜5×10^(5) CFU/ml in a final volume/well of 50 ul/well. Microtiter plates were incubated at 35±2° C.
Bacterial cell growth was determined with the measurement of optical density at λ=600 nm each minutes over a time course of 16 h. Growth inhibition was calculated during the logarithmic growth of the bacterial cells with determination of the concentration inhibiting 50% (IC50) and 90% (IC90) of the growth.
Table 2 provides the 90% growth inhibitory concentrations (IC90) in micromoles per liter of the compounds of present invention obtained against the strain Acinetobacter baumannii ATCC17961.

| SMILES | IC90 [nM] |
| --- | --- |
| C[N+](C)(C)CC(=O)N1CCN(C(=O)c2ccc(Nc3nccn4c(-c5c[nH]nc5C(F)(F)F)cnc34)cc2Cl)CC1 [Example 62, [2-[4-[2-Chloro-4-[[3-[3-(trifluoromethyl)-1H-pyrazol-4-yl]imidazo[1,2-a]pyrazin-8-yl]amino]benzoyl]piperazin-1-yl]-2-oxo-ethyl]-trimethyl-ammonium Formate] | 449 |
| COc1ccc(-c2cnc3c(Nc4ccc(C(=O)N[C@H]5CC[C@@H](NC(=O)C[N+](C)(C)C)CC5)c(C)c4)nccn23)c(F)c1F [Example 63, 2-(((1s,4s)-4-(4-((3-(2,3-Difluoro-4-methoxyphenyl)imidazo[1,2-a]pyrazin-8-yl)amino)-2-methylbenzamido)cyclohexyl)amino)-N,N,N-trimethyl-2-oxoethan-1-aminium Chloride] | 81.1 |
| Cc1cc(Nc2nccn3c(-c4cn(CC#N)nc4C(F)(F)F)cnc23)ccc1C(=O)N1CCN(C(=O)C[N+](C)(C)C)CC1 [Example 64, [2-[4-[4-[[3-[1-(Cyanomethyl)-3-(trifluoromethyl)pyrazol-4-yl]imidazo[1,2-a]pyrazin-8-yl]amino]-2-methyl-benzoyl]piperazin-1-yl]-2-oxo-ethyl]-trimethyl-ammonium Formate] | 780 |

Results, then the compound that gave them:

| IC90 [nM] | SMILES |
| --- | --- |
| 546 | C[N+](C)(C)CC(=O)N1CCN(C(=O)c2ccc(Nc3nccn4c(-c5cn(CC#N)nc5C(F)(F)F)cnc34)cc2Cl)CC1 [Example 65, [2-[4-[2-Chloro-4-[[3-[1-(cyanomethyl)-3-(trifluoromethyl)pyrazol-4-yl]imidazo[1,2-a]pyrazin-8-yl]amino]benzoyl]piperazin-1-yl]-2-oxo-ethyl]-trimethyl-ammonium Formate] |
| 57.2 | COc1ccc(-c2cnc3c(Nc4ccc(C(=O)N[C@H]5C[C@@H](NCC[N+](C)(C)C)C5)c(Cl)c4)nccn23)c(F)c1F [Example 66, 2-[[3-[[2-Chloro-4-[[3-(2,3-difluoro-4-methoxy-phenyl)imidazo[1,2-a]pyrazin-8-yl]amino]benzoyl]amino]cyclobutyl]amino]ethyl-trimethyl-ammonium Formate] |
| 44.8 | COc1ccc(-c2cnc3c(Nc4ccc(C(=O)N[C@H]5CCN(C(=O)C[N+](C)(C)C)C5)c(C)c4)nccn23)c(F)c1F [Example 67, (S)-2-(3-(4-((3-(2,3-Difluoro-4-methoxyphenyl)imidazo[1,2-a]pyrazin-8-yl)amino)-2-methylbenzamido)pyrrolidin-1-yl)-N,N,N-trimethyl-2-oxoethan-1-aminium Chloride] |
| 168 | COc1ccc(-c2cnc3c(Nc4ccc(C(=O)NC5CCCN(C(=O)C[N+](C)(C)C)C5)c(C)c4)nccn23)c(F)c1F (stereo not drawn) [Example 68, 2-(3-(4-((3-(2,3-Difluoro-4-methoxyphenyl)imidazo[1,2-a]pyrazin-8-yl)amino)-2-methylbenzamido)piperidin-1-yl)-N,N,N-trimethyl-2-oxoethan-1-aminium Chloride] |
| 263 | COc1ccc(-c2cnc3c(Nc4ccc(C(=O)N[C@H]5CC[C@H](NC(=O)C[N+](C)(C)C)CC5)c(C)c4)nccn23)c(F)c1F [Example 69, 2-(((1r,4r)-4-(4-((3-(2,3-Difluoro-4-methoxyphenyl)imidazo[1,2-a]pyrazin-8-yl)amino)-2-methylbenzamido)cyclohexyl)amino)-N,N,N-trimethyl-2-oxoethan-1-aminium Chloride] |

Same assay, conditions: Acinetobacter baumannii, ATCC17961, 16 h, read-out: ATCC 17961 IC90

| SMILES | IC90 [nM] |
| --- | --- |
| C[N+](C)(C)CC(=O)N[C@H]1C[C@@H](NC(=O)c2ccc(Nc3nccn4c(-c5c[nH]nc5C(F)(F)F)cnc34)cc2Cl)C1 [Example 61, [2-[[3-[[2-Chloro-4-[[3-[3-(trifluoromethyl)-1H-pyrazol-4-yl]imidazo[1,2-a]pyrazin-8-yl]amino]benzoyl]amino]cyclobutyl]amino]-2-oxo-ethyl]-trimethyl-ammonium Formate] | 478 |

— US20230141600A1, “IMIDAZOPYRAZINE DERIVATIVES” (priority 2020, published 2023)
